Data from patent US20110207760A1, “SN-38 COMPOSITIONS” (priority 2010, published 2011).

Experiment: Pharmacokinetics of SN-38 and SN-38G after i.v. dosing of SN-38 in 40% SBECD
Format: in vivo, Female Sprague-Dawley rats
Conditions: rat, i.v.
Protocol: Female Sprague-Dawley rats, 4 animals per group received i.v. injections of SN-38 (doses 0.65 mg/kg and 2 mg/kg) in 40% SBECD. The SN-38 solution for the treatment was prepared by the dilution of concentrated composition of the Example 1 with water. The blood plasma samples were collected from each group of animals, extracted using liquid extraction with cold methanol/acetonitrile mixture (1:1 v/v), and analyzed using a HPLC method with fluorescent detection. The results, including levels of SN-38 and SN-38G in plasma and calculated values of area under the curve (AUC) for SN-38 and SN-38G are presented in Tables 5 and 6 below.

**Q.** With `CCc1c2c(nc3ccc(O[C@@H]4O[C@H](C(=O)O)[C@@H](O)[C@H](O)[C@H]4O)cc13)-c1cc3c(c(=O)n1C2)COC(=O)[C@]3(O)CC` [SN-38G, SN-38 glucuronide] as the compound, how does the AUC (dosing SN-38 0.65 mg/kg in 40% SBECD) read?
**A.** Its AUC is 275 ng·h/mL.

**Q.** What about the Plasma levels (dosing SN-38 0.65 mg/kg in 40% SBECD, 0.17 h) of the same compound?
**A.** Its Plasma levels is 266.5 ng/mL.

**Q.** What about the Plasma levels (dosing SN-38 0.65 mg/kg in 40% SBECD, 0.5 h) of the same compound?
**A.** Its Plasma levels is 150.7 ng/mL.

**Q.** And the Plasma levels (dosing SN-38 0.65 mg/kg in 40% SBECD, 0.75 h)?
**A.** Its Plasma levels is 97.1 ng/mL.

**Q.** What about the Plasma levels (dosing SN-38 0.65 mg/kg in 40% SBECD, 1 h) of the same compound?
**A.** Its Plasma levels is 61.5 ng/mL.

**Q.** What about the Plasma levels (dosing SN-38 0.65 mg/kg in 40% SBECD, 3 h) of the same compound?
**A.** The Plasma levels was 15.7 ng/mL.

**Q.** What about the Plasma levels (dosing SN-38 0.65 mg/kg in 40% SBECD, 6 h) of the same compound?
**A.** Its Plasma levels is 6.0 ng/mL.

**Q.** And the AUC (dosing SN-38 2 mg/kg in 40% SBECD)?
**A.** The AUC was 1085 ng·h/mL.

**Q.** What about the Plasma levels (dosing SN-38 2 mg/kg in 40% SBECD, 0.17 h) of the same compound?
**A.** Its Plasma levels is 1282.0 ng/mL.

**Q.** What about the Plasma levels (dosing SN-38 2 mg/kg in 40% SBECD, 0.5 h) of the same compound?
**A.** Its Plasma levels is 747.7 ng/mL.

**Q.** And the Plasma levels (dosing SN-38 2 mg/kg in 40% SBECD, 0.75 h)?
**A.** Its Plasma levels is 289.8 ng/mL.

**Q.** And the Plasma levels (dosing SN-38 2 mg/kg in 40% SBECD, 1 h)?
**A.** The Plasma levels was 239.9 ng/mL.

**Q.** And the Plasma levels (dosing SN-38 2 mg/kg in 40% SBECD, 3 h)?
**A.** The Plasma levels was 27.6 ng/mL.

**Q.** And the Plasma levels (dosing SN-38 2 mg/kg in 40% SBECD, 6 h)?
**A.** The Plasma levels was 18.5 ng/mL.
